In data set [1] the target is Voltage-dependent T-type calcium channel subunit alpha-1I (Homo sapiens, UniProt Q9P0X4). Kind of data set: Channel blocking activity at recombinant human CaV 3.3 channel expressed in HEK293 cells assessed as inhibition of Ca2+ flux preincubated for 3 mins followed by CaCl2 addition by fluo-4 dye-based FLIPR assay. In kind it is cell-based. A general note: Calcium assays in cells follow changes in intracellular calcium, usually with a dye or a luminescent sensor.

The target of data set [2] is Voltage-dependent T-type calcium channel subunit alpha-1G (Homo sapiens, UniProt O43497). Kind of data set: Channel blocking activity at recombinant human CaV 3.1 channel expressed in HEK293 cells assessed as inhibition of Ca2+ flux preincubated for 3 mins followed by CaCl2 addition by fluo-4 dye-based FLIPR assay. In kind it is cell-based.
Data set [3] in a line: Solubility of the compound at pH 7. The format is physicochemical. Conditions: buffer.
A short description of data set [4]: Intrinsic clearance in human liver microsomes at 1 uM up to 15 mins in presence of NADPH by LC-MS-MS analysis. The format is ADME. Conditions: read-out: CLH.
The target of data set [5] is Voltage-dependent T-type calcium channel subunit alpha-1H (Homo sapiens, UniProt O95180). Kind of data set: Channel blocking activity at recombinant human CaV 3.2 channel expressed in HEK293 cells assessed as inhibition of Ca2+ flux preincubated for 3 mins followed by CaCl2 addition by fluo-4 dye-based FLIPR assay. In kind it is cell-based.
Chain of Voltage-dependent T-type calcium channel subunit alpha-1H (O95180 whole entry): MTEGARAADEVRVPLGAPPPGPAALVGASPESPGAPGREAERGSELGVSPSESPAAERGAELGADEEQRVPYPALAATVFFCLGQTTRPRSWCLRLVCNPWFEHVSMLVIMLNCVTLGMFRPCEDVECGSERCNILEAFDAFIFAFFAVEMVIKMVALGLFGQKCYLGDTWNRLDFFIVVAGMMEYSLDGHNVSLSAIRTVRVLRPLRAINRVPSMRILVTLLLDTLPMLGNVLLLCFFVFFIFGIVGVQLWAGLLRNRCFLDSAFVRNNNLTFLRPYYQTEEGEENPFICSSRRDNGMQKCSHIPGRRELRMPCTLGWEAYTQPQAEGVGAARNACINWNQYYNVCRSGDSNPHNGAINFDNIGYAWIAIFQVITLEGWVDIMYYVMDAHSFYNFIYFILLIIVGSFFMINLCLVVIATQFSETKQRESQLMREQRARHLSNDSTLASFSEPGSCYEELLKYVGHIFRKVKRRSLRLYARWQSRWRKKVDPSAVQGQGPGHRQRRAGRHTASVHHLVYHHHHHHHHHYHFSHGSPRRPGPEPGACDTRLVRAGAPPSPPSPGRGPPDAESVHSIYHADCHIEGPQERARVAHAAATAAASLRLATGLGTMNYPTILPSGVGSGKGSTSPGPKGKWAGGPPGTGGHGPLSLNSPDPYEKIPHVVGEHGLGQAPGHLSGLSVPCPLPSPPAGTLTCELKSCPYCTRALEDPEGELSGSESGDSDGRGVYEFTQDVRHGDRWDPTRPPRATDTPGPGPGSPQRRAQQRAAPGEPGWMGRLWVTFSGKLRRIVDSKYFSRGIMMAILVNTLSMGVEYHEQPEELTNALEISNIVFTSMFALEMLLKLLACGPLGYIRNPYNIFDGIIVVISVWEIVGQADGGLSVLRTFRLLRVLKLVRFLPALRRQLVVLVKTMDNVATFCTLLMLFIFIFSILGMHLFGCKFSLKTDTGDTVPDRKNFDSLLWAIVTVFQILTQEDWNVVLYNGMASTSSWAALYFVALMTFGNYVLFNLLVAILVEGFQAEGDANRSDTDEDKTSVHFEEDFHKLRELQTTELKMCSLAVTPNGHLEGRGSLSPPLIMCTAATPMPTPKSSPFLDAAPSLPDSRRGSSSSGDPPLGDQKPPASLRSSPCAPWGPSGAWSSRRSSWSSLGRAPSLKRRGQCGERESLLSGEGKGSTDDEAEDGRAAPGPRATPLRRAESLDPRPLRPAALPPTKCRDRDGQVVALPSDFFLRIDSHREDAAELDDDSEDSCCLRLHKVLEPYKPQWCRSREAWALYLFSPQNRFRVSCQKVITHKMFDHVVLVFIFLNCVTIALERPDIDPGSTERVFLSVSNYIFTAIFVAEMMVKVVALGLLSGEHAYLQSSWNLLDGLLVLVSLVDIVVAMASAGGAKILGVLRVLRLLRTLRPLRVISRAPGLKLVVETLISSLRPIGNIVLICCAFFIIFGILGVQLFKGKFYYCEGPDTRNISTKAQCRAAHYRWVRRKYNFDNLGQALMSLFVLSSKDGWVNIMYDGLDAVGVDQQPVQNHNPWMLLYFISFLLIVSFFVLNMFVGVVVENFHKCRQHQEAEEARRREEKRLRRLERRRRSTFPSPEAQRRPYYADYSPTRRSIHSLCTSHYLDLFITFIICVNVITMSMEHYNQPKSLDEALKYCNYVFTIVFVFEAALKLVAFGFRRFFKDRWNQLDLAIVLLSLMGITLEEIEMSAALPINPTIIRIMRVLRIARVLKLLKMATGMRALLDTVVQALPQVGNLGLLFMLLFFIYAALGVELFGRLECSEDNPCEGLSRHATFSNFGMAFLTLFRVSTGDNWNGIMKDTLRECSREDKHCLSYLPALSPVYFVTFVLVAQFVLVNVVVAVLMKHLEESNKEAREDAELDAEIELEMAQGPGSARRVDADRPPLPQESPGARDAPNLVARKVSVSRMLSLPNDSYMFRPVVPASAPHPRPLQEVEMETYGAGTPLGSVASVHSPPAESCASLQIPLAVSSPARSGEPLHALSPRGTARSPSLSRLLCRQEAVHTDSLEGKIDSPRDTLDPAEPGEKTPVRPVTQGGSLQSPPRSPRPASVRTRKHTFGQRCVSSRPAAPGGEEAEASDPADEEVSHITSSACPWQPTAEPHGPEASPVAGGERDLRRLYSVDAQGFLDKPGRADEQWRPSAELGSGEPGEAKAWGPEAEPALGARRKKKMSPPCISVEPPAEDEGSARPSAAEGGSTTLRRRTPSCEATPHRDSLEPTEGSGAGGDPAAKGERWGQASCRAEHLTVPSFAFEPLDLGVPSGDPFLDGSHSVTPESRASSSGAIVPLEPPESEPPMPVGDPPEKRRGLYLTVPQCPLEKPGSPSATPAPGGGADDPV
Data set [6] can be described thus: Intrinsic clearance in Wistar rat liver microsomes at 1 uM up to 15 mins in presence of NADPH by LC-MS-MS analysis. The format is ADME. The conditions noted are these: read-out: CLH. Background: Liver microsomes are vesicles of endoplasmic reticulum, rich in cytochrome P450 enzymes.

Structures are written as SMILES. ≈ marks a conversion by molar mass, not a printed value. Bounds are passed on as bounds.

Chain of Voltage-dependent T-type calcium channel subunit alpha-1I (Q9P0X4 whole entry): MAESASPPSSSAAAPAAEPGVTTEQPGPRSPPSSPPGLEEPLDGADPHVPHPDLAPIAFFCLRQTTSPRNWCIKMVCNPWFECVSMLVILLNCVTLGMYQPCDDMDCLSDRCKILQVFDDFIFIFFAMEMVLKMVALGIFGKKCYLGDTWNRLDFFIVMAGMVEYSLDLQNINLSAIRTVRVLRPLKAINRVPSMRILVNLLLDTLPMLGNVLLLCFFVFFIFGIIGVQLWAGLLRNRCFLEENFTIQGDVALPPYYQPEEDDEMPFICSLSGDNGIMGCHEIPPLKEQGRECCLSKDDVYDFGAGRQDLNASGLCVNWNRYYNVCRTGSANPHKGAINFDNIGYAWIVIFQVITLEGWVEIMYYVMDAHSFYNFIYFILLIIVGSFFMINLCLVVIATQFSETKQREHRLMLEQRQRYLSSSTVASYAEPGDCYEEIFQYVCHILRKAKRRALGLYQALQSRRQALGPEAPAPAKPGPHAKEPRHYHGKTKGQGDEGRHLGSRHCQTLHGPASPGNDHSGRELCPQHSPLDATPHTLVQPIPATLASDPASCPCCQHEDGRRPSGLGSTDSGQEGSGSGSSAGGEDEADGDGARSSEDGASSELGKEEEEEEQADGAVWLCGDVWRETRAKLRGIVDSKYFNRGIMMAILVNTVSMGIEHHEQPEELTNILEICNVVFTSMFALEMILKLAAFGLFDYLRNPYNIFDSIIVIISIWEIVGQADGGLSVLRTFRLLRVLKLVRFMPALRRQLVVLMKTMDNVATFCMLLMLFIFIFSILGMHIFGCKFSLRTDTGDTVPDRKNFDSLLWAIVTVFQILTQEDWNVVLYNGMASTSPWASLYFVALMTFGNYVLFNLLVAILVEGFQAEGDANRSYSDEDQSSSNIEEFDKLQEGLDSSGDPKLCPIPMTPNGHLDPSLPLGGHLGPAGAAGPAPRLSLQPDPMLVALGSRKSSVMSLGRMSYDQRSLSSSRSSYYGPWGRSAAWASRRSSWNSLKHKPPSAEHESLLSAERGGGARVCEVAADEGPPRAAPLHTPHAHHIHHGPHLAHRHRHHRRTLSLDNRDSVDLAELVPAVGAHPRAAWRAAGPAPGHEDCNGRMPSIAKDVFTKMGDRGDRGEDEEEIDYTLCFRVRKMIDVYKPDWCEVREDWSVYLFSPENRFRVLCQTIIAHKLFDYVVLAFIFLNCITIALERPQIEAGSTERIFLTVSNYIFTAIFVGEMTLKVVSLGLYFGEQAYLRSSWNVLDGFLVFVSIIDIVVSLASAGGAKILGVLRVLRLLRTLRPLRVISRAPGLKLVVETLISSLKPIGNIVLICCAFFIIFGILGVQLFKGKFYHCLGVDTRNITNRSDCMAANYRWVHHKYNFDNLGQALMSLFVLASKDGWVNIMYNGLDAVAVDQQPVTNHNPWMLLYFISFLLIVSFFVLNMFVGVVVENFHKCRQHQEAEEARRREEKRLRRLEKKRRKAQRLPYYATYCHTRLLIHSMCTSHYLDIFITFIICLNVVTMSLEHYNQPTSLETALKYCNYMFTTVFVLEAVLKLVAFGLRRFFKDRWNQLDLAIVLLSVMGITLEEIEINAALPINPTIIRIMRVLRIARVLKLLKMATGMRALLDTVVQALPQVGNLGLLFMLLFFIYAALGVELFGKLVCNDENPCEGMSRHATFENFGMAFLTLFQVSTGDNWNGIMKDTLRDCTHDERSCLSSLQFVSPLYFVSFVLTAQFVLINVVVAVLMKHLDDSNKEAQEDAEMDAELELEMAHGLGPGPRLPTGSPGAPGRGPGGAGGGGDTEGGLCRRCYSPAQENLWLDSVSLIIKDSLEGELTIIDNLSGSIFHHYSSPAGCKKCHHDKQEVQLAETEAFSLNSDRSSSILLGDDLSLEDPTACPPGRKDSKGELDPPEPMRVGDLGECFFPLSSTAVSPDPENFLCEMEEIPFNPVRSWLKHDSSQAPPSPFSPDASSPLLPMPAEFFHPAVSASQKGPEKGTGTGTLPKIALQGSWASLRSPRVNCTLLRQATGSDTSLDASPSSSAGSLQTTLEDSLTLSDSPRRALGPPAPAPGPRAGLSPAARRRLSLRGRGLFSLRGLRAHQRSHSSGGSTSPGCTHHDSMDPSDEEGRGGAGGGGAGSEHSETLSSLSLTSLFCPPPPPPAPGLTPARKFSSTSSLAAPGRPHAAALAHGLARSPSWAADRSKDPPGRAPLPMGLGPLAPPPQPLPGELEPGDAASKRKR

Take `C[C@@H]1CN(CC2CCCCO2)c2ccccc2[C@H](C)N1C(=O)Nc1cccnc1` (mixture of isomers): the IC50 in data set [1] came to 243 nM; in data set [2] it was 875 nM; in data set [5], 2670 nM. Moreover, the solubility in data set [3] was 248 µg/mL. Moreover, the microsomal CLint at 1 µM in data set [4] was 720 µL/min/mg.

On to `C[C@@H]1CN(Cc2ccccc2)c2ccccc2[C@H](C)N1C(=O)Nc1cccnc1` (racemic), for which the IC50 in data set [1] stood at 14 nM; in data set [2], 42 nM; in data set [5], 61 nM. Further, the solubility in data set [3] lay within 21 to 39 µg/mL (≈ 54.3 to 101 µM). Moreover, in data set [4], the microsomal CLint at 1 µM is over 1250 µL/min/mg.

Regarding `C[C@@H]1CN(Cc2ccccc2)c2ccccc2[C@H](C)N1C(=O)NC1COC1` (racemic), the IC50 came to 12 nM in data set [1], 26 nM in data set [2] and 61 nM in data set [5]. This compound came in with a solubility in data set [3] of 148 µg/mL (≈ 405 µM). In data set [4], the microsomal CLint at 1 µM is 539 µL/min/mg.

For `C[C@@H]1CN(Cc2ccccc2)c2cnccc2[C@H](C)N1C(=O)Nc1cccnc1` (racemic), the half-inhibitory concentration (IC50) was 306 nM in data set [1], 360 nM in data set [2] and 860 nM in data set [5]. Also, the values for the microsomal CLint at 1 µM in data set [6] and in data set [4] were 562 µL/min/mg and 93 µL/min/mg, respectively.

`[2H]C([2H])(c1ccccc1)N1C[C@@H](C)N(C(=O)Nc2cccnc2)[C@@H](C)c2ccncc21` (racemic): the IC50 was found to be 148 nM in data set [1], 441 nM in data set [2] and 815 nM in data set [5]. Further, the microsomal CLint at 1 µM came to 855 µL/min/mg in data set [6] and 59 µL/min/mg in data set [4].

For the compound `C[C@@H]1CN(Cc2ccc(C(F)(F)F)o2)c2cnccc2[C@H](C)N1C(=O)NCc1ccccc1` (racemic), the IC50 in data set [1] was found to be 10 nM; in data set [2] it was 37 nM; in data set [5], 44 nM. Besides, the results for the microsomal CLint at 1 µM in data set [6] and in data set [4] were 1180 µL/min/mg and 247 µL/min/mg, respectively.

In the case of `COc1ccc(CNC(=O)N2[C@H](C)CN(Cc3ccc(C(F)(F)F)o3)c3cnccc3[C@@H]2C)cc1` (racemic), the results for the half-maximal inhibitory concentration (IC50) in data set [1], in data set [2] and in data set [5] were 11 nM, 13 nM and 24 nM, respectively. The figures for the microsomal CLint at 1 µM in data set [6] and in data set [4] were 447 µL/min/mg and 119 µL/min/mg, respectively.

As for `C[C@@H]1CN(Cc2ccccc2)c2ccccc2[C@H](C)N1C(=O)Cc1cncs1` (racemic), the IC50 stood at 6 nM in data set [1], 34 nM in data set [2] and 55 nM in data set [5]. This compound also showed a solubility in data set [3] of 21 to 39 µg/mL (≈ 53.6 to 99.6 µM). Further, the microsomal CLint at 1 µM in data set [4] was over 1250 µL/min/mg.

Turning to `C[C@@H]1CN(Cc2ccccc2)c2cnccc2[C@H](C)N1C(=O)CCc1ccc(F)cc1` (racemic), the IC50 in data set [1] came out at 25 nM; in data set [2], 196 nM; in data set [5], 225 nM. Moreover, the microsomal CLint at 1 µM is over 1250 µL/min/mg in data set [6] and 907 µL/min/mg in data set [4].

On to `COc1ccc(CNC(=O)N2[C@H](C)CN(Cc3ccccc3)c3cnccc3[C@@H]2C)cc1` (racemic), for which the results for the IC50 in data set [1], in data set [2] and in data set [5] were 12 nM, 79 nM and 48 nM, respectively. Further, the microsomal CLint at 1 µM in data set [6] was determined as 1140 µL/min/mg; in data set [4] it was 189 µL/min/mg.

For the compound `C[C@@H]1CN(Cc2ccccc2F)c2cnccc2[C@H](C)N1C(=O)NCc1ccccc1` (racemic), the 50% inhibitory concentration (IC50) was 31 nM in data set [1], 47 nM in data set [2] and 95 nM in data set [5]. Moreover, the microsomal CLint at 1 µM in data set [6] was over 1250 µL/min/mg; in data set [4], 179 µL/min/mg.

As for `C[C@@H]1CN(CCOC(C)(C)C)c2ccccc2[C@H](C)N1C(=O)Nc1cccnc1` (racemic), the IC50 in data set [1] was 23 nM; in data set [2], 108 nM; in data set [5], 91 nM. In addition, in data set [3], the solubility stood at 81 µg/mL (≈ 204 µM). Besides, the microsomal CLint at 1 µM in data set [4] is 1230 µL/min/mg.

In the case of `[2H]C([2H])(c1ccccc1)N1C[C@@H](C)N(C(=O)NCc2ccccc2)[C@@H](C)c2ccncc21` (racemic), the IC50 in data set [1] was found to be 15 nM; in data set [2], 260 nM; in data set [5] it was 230 nM. In addition, the microsomal CLint at 1 µM in data set [6] is over 1250 µL/min/mg; in data set [4] it was 186 µL/min/mg.

By IC50 is commonly meant the midpoint of a concentration-inhibition curve. By solubility is commonly meant the dissolved amount per volume that the medium holds.

Values taken from ChEMBL document CHEMBL3864167, “Structure-Activity Relationship, Drug Metabolism and Pharmacokinetics Properties Optimization, and in Vivo Studies of New Brain Penetrant Triple T-Type Calcium Channel Blockers” (J Med Chem, 2016).
